Measured values reported in the METLIN SMRT retention time set (Domingo-Almenara et al. 2019).

Test: gradient 5% acetonitrile 3 min, to 50% in 2 min, to 85% in 15 min, held 3 min, 100 µL/min
Conditions: column: Zorbax Extend-C18 2.1 x 50 mm; eluents: water / acetonitrile, 0.1% formic acid
Summary of the method: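 Data were gathered over 3 months by HPLC coupled to a quadrupole time-of-flight mass spectrometer, operated in positive and negative ionization mode. Mixtures of ~100 pure standards ran on a Zorbax Extend-C18 column (2.1 × 50 mm, 1.8 μm) at 100 μL/min, with water and acetonitrile each containing 0.1% formic acid and dead and dwell volumes of 40 μL and 900 μL. Retention time was read from adduct peaks picked by computer and checked manually.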

Row | SMILES | RP-LC retention time
1 | COc1ccc(Cl)cc1S(=O)(=O)N1CCC(C(=O)NCCC2=CCCCC2)CC1 | 994 s
2 | COc1ccc(NC(=O)C2c3cc(OC)c(OC)cc3C(=O)N3CCc4ccccc4C23)cc1OC (configuration not stated) | 744 s
3 | CC(CCc1ccccc1)NC(=O)C1CCN(C(=O)C2Sc3ccccc3NC2=O)CC1 (configuration not stated) | 811 s
4 | CCOc1ccc(CC(=O)Nc2nc(-c3cccs3)cs2)cc1 | 963 s
5 | Cc1noc(C)c1CCNC(=O)C1CCCN(c2nc3ccccc3n(Cc3ccccc3)c2=O)C1 (configuration not stated) | 974 s
6 | O=S(=O)(NCC(c1ccccc1)S(=O)(=O)c1cccs1)c1cccs1 (configuration not stated) | 878 s
7 | CC(C)n1cnc2cc(CNC(=O)c3ccnn3C)ccc21 | 582 s
8 | O=C(c1ccc(Cn2cncn2)cc1)N1CCc2ccccc2C1 | 687 s
9 | O=C(c1ccoc1)N1CCCC(c2nnc3n2CCN(C(=O)C2CC2)C3)C1 (configuration not stated) | 591 s
10 | Cc1ccc(NC(=O)c2nnc(CCCC(=O)NCCc3c[nH]c4ccc(C)cc34)s2)cc1 | 946 s
11 | O=C(CN1C(=O)CCc2cc(Br)ccc21)Nc1ccc2c(c1)OCCO2 | 912 s
12 | O=C(Cc1noc2ccccc12)NCC1CCS(=O)(=O)C1 (configuration not stated) | 606 s
13 | Clc1cccc(-c2noc(-c3nc(-c4ccncc4)no3)n2)c1 | 1130 s
14 | Cc1cc(NC(=O)NCCn2nnc3cc(C(=O)N4CCCC4)ccc32)ccc1Br | 740 s
15 | Cc1nnc2ccc(S(=O)(=O)Nc3ccc4c(c3)OCO4)cn12 | 669 s
16 | Cc1nc2cccnc2n1-c1cccc(C(=O)N2CCN(c3ccccn3)CC2)c1 | 568 s
17 | CCC(CC)C(=O)Nc1cccc(C(=O)Nc2nc(-c3ccccc3)cs2)c1 | 1070 s
18 | CCn1cc(C(=O)NCc2ccccn2)c(S(=O)(=O)N2CCSCC2)n1 | 647 s
19 | COc1ccc(OC)c(NC(=O)C(C)Oc2ccc(=O)n(-c3ccc(F)cc3)n2)c1 (configuration not stated) | 816 s

Row | SMILES | RP-LC retention time
20 | CCc1ccc(CNC(=O)Cn2ccc3ccc(N4CCCCC4)nc32)cc1 | 999 s
21 | COc1ccc(-c2noc(C3CC(=O)N(c4cc(C)cc(C)c4)C3)n2)c(OC)c1 (configuration not stated) | 970 s
22 | CCn1cc(S(=O)(=O)Nc2cc(F)ccc2C)c2cccnc21 | 869 s
23 | COc1cccc(-c2nc(NCc3ccncc3)ncc2C(=O)O)c1 | 577 s
24 | O=C(Cc1ccsc1)N1CCC(c2noc(C3CC3)n2)C1 (configuration not stated) | 734 s
25 | Cc1ccc(-c2nnc(-c3nn(C)c4c3CN(S(=O)(=O)c3ccc(C(C)C)cc3)CC4)o2)cc1 | 1160 s
26 | CC(C)c1noc(-c2ccnc(-n3cnc(C(=O)NC4CCCCC4)c3)c2)n1 | 1020 s
27 | COc1ccc(C2CC(=O)N(c3ccc(OC)c(OC)c3)C(=O)C2)cc1OC | 910 s
28 | CC(C)CCNC(=O)CCC(=O)N1CC2CCCN2c2ccccc21 (configuration not stated) | 902 s
29 | CCC(=O)N1CCC(Oc2nccnc2N(C)C)C1 (configuration not stated) | 616 s
30 | CNC(=O)c1ccc2c(c1)CCCN2C(=O)c1cccc(Cl)c1 | 746 s
31 | CC(NC(=O)CCCn1c(=O)c2cccn2c2ccc(Br)cc21)C(=O)N1CCCCC1 (configuration not stated) | 832 s
32 | Cc1ccc(-c2cn3ccn(-c4ccc(F)c(F)c4)c(=O)c3n2)c(C)c1 | 924 s
33 | CCc1nc2cc(N3CCCC(C(=O)O)C3)cnc2nc1CC (configuration not stated) | 693 s
34 | CNC(=O)N1CCCN(C2=NS(=O)(=O)C(c3ccccc3)=C2C)CC1 | 594 s
35 | CS(=O)(=O)NCc1ccc2c(c1)CCN2C(=O)c1ccc(Cl)cc1 | 794 s
36 | COc1cccc(CNC(=O)Nc2ccc(-c3nc(-c4cc(C)ccc4C)co3)cc2)c1 | 1180 s
37 | CS(=O)(=O)N1CCOc2ccc(CCC(=O)NC3CCS(=O)(=O)C3)cc2C1 (configuration not stated) | 644 s
